Where two headings read alike, the source gives them in different places. Square brackets hold non-standard residues; d marks the D form. Ends that are not written are not given here. Peptide text beside a SMILES is read from it. Cit = NC(=O)NCCC[C@H](N)C(=O)O

Test [1] addresses T1, HLA-DRB1*01:01 (Homo sapiens, UniProt P01903+P01911, A100R/D57E/F55L/F60I/F76Y/I96L/L162R/M171V/P40L/Q125E/R42F/V115G/Y59C).
T1 construct: EBV transformed homozygous cell lines were used as sources of MHC molecules; endogenous in cells; host or cells: EBV transformed homozygous cell lines
The experiment in a line: HLA class II peptide binding, inhibition of radiolabeled peptide binding to purified MHC.

In test [2] the target is T2, HLA-DRB1*04:01 (Homo sapiens, UniProt P01903+P01911, A100K/A169T/F76Y/I96L/K127E/L162R/M171V/N62H/P40V/Q125Y/R42H/S133A/S149N/S66Y/V115G/V209L/W38E).
T2 construct: EBV transformed homozygous cell lines were used as sources of MHC molecules; endogenous in cells; host or cells: EBV transformed homozygous cell lines
The test is described as above.

Where [3] appears, read: wild-type (unmodified Arg) 15-mer peptide, purified HLA-DRB1*01:01, read-out: DRB1*01:01 binding capacity, WT peptide (IC50 nM).
Where [4] appears, read: wild-type (unmodified Arg) 15-mer peptide, purified HLA-DRB1*04:01, read-out: DRB1*04:01 binding capacity, WT peptide (IC50 nM).
[5] abbreviates: citrullinated 15-mer (X), purified MHC, inhibition of radiolabeled peptide binding, dash = IC50 >40,000 nM, read-out: DRB1*01:01 binding capacity, Cit peptide (IC50 nM).
Setting [6] is: citrullinated 15-mer (X), purified MHC, inhibition of radiolabeled peptide binding, dash = IC50 >40,000 nM, read-out: DRB1*04:01 binding capacity, Cit peptide (IC50 nM).
Setting [7] is: citrullinated 15-mer peptide (X = citrulline), purified HLA-DRB1*01:01, read-out: DRB1*01:01 binding capacity, Cit peptide (IC50 nM).
Setting [8] is: citrullinated 15-mer peptide (X = citrulline), purified HLA-DRB1*04:01, read-out: DRB1*04:01 binding capacity, Cit peptide (IC50 nM).

One may read the IC50 as the midpoint of a concentration-inhibition curve. As to `CC[C@H](C)[C@H](NC(=O)[C@@H](NC(=O)[C@@H](NC(=O)[C@H](CCCCN)NC(=O)CN)[C@@H](C)O)C(C)C)C(=O)N[C@@H](CCC(=O)O)C(=O)N[C@@H](Cc1ccc(O)cc1)C(=O)N[C@@H](CCCNC(=N)N)C(=O)N[C@@H](CO)C(=O)N[C@@H](CCC(N)=O)C(=O)N[C@@H](CCCCN)C(=O)N[C@H](C(=O)N[C@@H](CO)C(=O)N[C@@H](CCCNC(N)=O)C(=O)N[C@@H](CC(C)C)C(=O)O)[C@@H](C)O` [GKTVIEYRSQKTSXL] (H-GKTVIEYRSQKTS[Cit]L-OH), the IC50 in test [1] (citrullinated peptide as listed (X at Cit position), read-out: DRB1*01:01 binding capacity Cit peptide (IC50 nM)) was determined as 9.3 nM; in test [1] (value of the wild-type (non-citrullinated) counterpart of the listed peptide, read-out: DRB1*01:01 binding capacity WT peptide (IC50 nM)), 29 nM; in test [2] (citrullinated peptide as listed (X at Cit position), read-out: DRB1*04:01 binding capacity Cit peptide (IC50 nM)) it was 138 nM; in test [2] (value of the wild-type (non-citrullinated) counterpart of the listed peptide, read-out: DRB1*04:01 binding capacity WT peptide (IC50 nM)) it was 646 nM.
`C[C@H](NC(=O)[C@@H]1CCCN1C(=O)CNC(=O)[C@H](CCC(N)=O)NC(=O)[C@@H]1CCCN1C(=O)CNC(=O)[C@@H]1CCCN1C(=O)[C@@H]1CCCN1)C(=O)NCC(=O)N[C@@H](CCC(=O)O)C(=O)N[C@@H](CCC(N)=O)C(=O)NCC(=O)N1CCC[C@H]1C(=O)N[C@@H](CCCNC(N)=O)C(=O)NCC(=O)O` [PPGPQGPAGEQGPXG] (H-PPGPQGPAGEQGP[Cit]G-OH): the IC50 in test [1] (citrullinated 15-mer peptide (X = citrulline), […], read-out: DRB1*01:01 binding capacity, Cit peptide (IC50 nM)) is 35600 nM; in test [2] (citrullinated 15-mer peptide (X = citrulline), […], read-out: DRB1*04:01 binding capacity, Cit peptide (IC50 nM)), more than 40000 nM.
For the compound LGPREKGPDPLQYMR [Collagen 1226 WT], the IC50 in test [1] (setting [3]) is 6720 nM; in test [2] (setting [4]), more than 40000 nM.
In the case of `CSCC[C@H](NC(=O)[C@H](CCCNC(=N)N)NC(=O)[C@H](CCCNC(N)=O)NC(=O)[C@H](Cc1ccc(O)cc1)NC(=O)[C@H](CO)NC(=O)[C@H](CO)NC(=O)[C@H](CO)NC(=O)[C@H](CO)NC(=O)[C@@H](N)C(C)C)C(=O)N[C@@H](Cc1ccccc1)C(=O)NCC(=O)NCC(=O)N1CCC[C@H]1C(=O)NCC(=O)N[C@H](C(=O)O)[C@@H](C)O` [VSSSSYXRMFGGPGT] (H-VSSSSY[Cit]RMFGGPGT-OH), the IC50 in test [1] (setting [5]) was found to be 37 nM; in test [2] (setting [6]), 906 nM.
Take PTGKQGDRGEAGAQG [Collagen 1081 WT]: the IC50 in test [1] (setting [3]) was 31000 nM; in test [2] (setting [4]), more than 40000 nM.
Take `CC(C)C[C@H](NC(=O)CNC(=O)[C@H](CCCNC(=N)N)NC(=O)[C@H](C)NC(=O)CNC(=O)[C@@H]1CCCN1C(=O)[C@@H](N)CC(C)C)C(=O)N[C@H](C(=O)NCC(=O)N[C@@H](CCCNC(N)=O)C(=O)N1CCC[C@H]1C(=O)NCC(=O)N[C@@H](CC(=O)O)C(=O)N[C@@H](C)C(=O)NCC(=O)O)[C@@H](C)O` [LPGARGLTGXPGDAG] (H-LPGARGLTG[Cit]PGDAG-OH): the IC50 was 18 nM in test [1] (setting [7]) and more than 40000 nM in test [2] (setting [8]).
FAVEAANYQDTIGRL [Vimentin 351 WT]: the figures for the IC50 in test [1] (setting [3]) and in test [2] (setting [4]) were 611 nM and 564 nM, respectively.
In the case of NTLQSFRQDVDNASL [Vimentin 201 WT], the IC50 in test [1] (read-out: DRB1*01:01 binding capacity, WT peptide (IC50 nM)) was 1840 nM; in test [2] (read-out: DRB1*04:01 binding capacity, WT peptide (IC50 nM)), 408 nM.
`CC(C)C[C@H](NC(=O)[C@H](CC(C)C)NC(=O)[C@H](CCCNC(N)=O)NC(=O)[C@@H](NC(=O)CNC(=O)[C@@H]1CCCN1C(=O)[C@@H](NC(=O)[C@H](CO)NC(=O)[C@H](CO)NC(=O)[C@H](CCCNC(=N)N)NC(=O)[C@H](CC(C)C)NC(=O)[C@H](CCCNC(=N)N)NC(=O)[C@@H](NC(=O)[C@H](C)NC(=O)[C@@H](N)CO)C(C)C)C(C)C)C(C)C)C(=O)O` [SAVRLRSSVPGVXLL] (H-SAVRLRSSVPGV[Cit]LL-OH): the IC50 in test [1] (setting [5]) worked out at 9.7 nM; in test [2] (setting [6]), 641 nM.
ENGSPGPMGPRGLPG [Collagen 316 WT]: the IC50 in test [1] (setting [3]) and in test [2] (setting [4]) was more than 40000 nM throughout.
Take `CC[C@H](C)[C@H](N)C(=O)N[C@@H](CO)C(=O)N[C@@H](CC(C)C)C(=O)N1CCC[C@H]1C(=O)N[C@@H](CC(C)C)C(=O)N1CCC[C@H]1C(=O)N[C@@H](CC(N)=O)C(=O)N[C@@H](Cc1ccccc1)C(=O)N[C@@H](CO)C(=O)N[C@@H](CO)C(=O)N[C@@H](CC(C)C)C(=O)N[C@@H](CC(N)=O)C(=O)N[C@@H](CC(C)C)C(=O)N[C@@H](CCCNC(N)=O)C(=O)N[C@@H](CCC(=O)O)C(=O)O` [ISLPLPNFSSLNLXE]: the values for the IC50 in test [1] (setting [7]) and in test [2] (setting [8]) were 309 nM and 4480 nM, respectively.

(Values after PMC5421785, “Citrullination only infrequently impacts peptide binding to HLA class II MHC” (PLoS ONE, 2017).)
